Test results: ChEMBL document CHEMBL1201862, “PubChem BioAssay data set” (2004)
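Results reflect a 48-hour exposure of cells in 96-well plates to compound at five concentrations. Here, GI50 denotes the concentration required for 50% inhibition of growth.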 Activity calls are given as the source filed them. No stated cut-off is given here; in the data, active = GI50 up to about 1.1 µM and inactive = higher.

Columns and labels:
Test in all cases: growth of human tumour cells (NCI), 48 h
[1] = test system: COLO 205
[2] = test system: UO-31
[3] = test system: SK-MEL-28
[4] = test system: DLD-1
[5] = test system: NCI-H23
[6] = test system: NCI-H522
[7] = test system: Malme-3M
[8] = test system: OVCAR-8
[9] = test system: M19-MEL
[10] = test system: SF-539
[11] = test system: U-251
[12] = test system: SNB-19
[13] = test system: DMS-114
[14] = test system: HOP-92
[15] = test system: LXFL 529
[16] = test system: HCT-116
[17] = test system: A498
[18] = test system: SF-268
[19] = test system: SNB-78
[20] = test system: RXF 631
[21] = test system: M14
[22] = test system: KM-20L2
[23] = test system: HCT-15
[24] = test system: A549
[25] = test system: SNB-75
[26] = test system: LOX IMVI
[27] = test system: SK-OV-3
[28] = test system: HT-29
[29] = test system: HCC 2998
[30] = test system: SK-MEL-5
[31] = test system: UACC-62
[32] = test system: NCI-H226
[33] = test system: K562
[34] = test system: UACC-257
[35] = test system: SK-MEL-2
[36] = test system: EKVX
[37] = test system: XF498
[38] = test system: OVCAR-5
[39] = test system: 786-0
[40] = test system: NCI-H460
[41] = test system: ACHN
[42] = test system: SN12C
[43] = test system: SR
[44] = test system: TK-10
[45] = test system: DMS-273
[46] = test system: HL-60
[47] = test system: SF-295
[48] = test system: HOP-62
[49] = test system: OVCAR-4
[50] = test system: KM12
[51] = test system: HOP-18
[52] = test system: RXF 393
[53] = test system: IGROV-1
[54] = test system: SW-620
[55] = test system: OVCAR-3
[56] = test system: MOLT-4
[57] = test system: CCRF-CEM
[58] = test system: CAKI-1

COC(=O)CCC(NC(=S)N/N=C/c1cccs1)C(=O)OC (stereo not drawn)
GI50 [1]: > 100 µM (inactive) | GI50 [2]: > 100 µM (inactive) | GI50 [3]: > 100 µM (inactive) | GI50 [4]: > 100 µM (inactive) | GI50 [5]: > 100 µM (inactive) | GI50 [6]: > 100 µM (inactive) | GI50 [7]: > 100 µM (inactive) | GI50 [8]: > 100 µM (inactive) | GI50 [9]: > 100 µM (inactive) | GI50 [10]: > 100 µM (inactive) | GI50 [11]: > 100 µM (inactive) | GI50 [12]: > 100 µM (inactive) | GI50 [13]: > 100 µM (inactive) | GI50 [14]: > 100 µM (inactive) | GI50 [15]: > 100 µM (inactive) | GI50 [16]: > 100 µM (inactive) | GI50 [17]: > 100 µM (inactive) | GI50 [18]: > 100 µM (inactive) | GI50 [19]: > 100 µM (inactive) | GI50 [20]: > 100 µM (inactive) | GI50 [21]: > 100 µM (inactive) | GI50 [22]: > 100 µM (inactive) | GI50 [23]: > 100 µM | GI50 [24]: > 100 µM (inactive) | GI50 [25]: > 100 µM (inactive) | GI50 [26]: > 100 µM (inactive) | GI50 [27]: > 100 µM (inactive) | GI50 [28]: > 100 µM (inactive) | GI50 [29]: > 100 µM (inactive) | GI50 [30]: > 100 µM (inactive) | GI50 [31]: > 100 µM (inactive) | GI50 [32]: > 100 µM (inactive) | GI50 [33]: > 100 µM (inactive) | GI50 [34]: > 100 µM (inactive) | GI50 [35]: > 100 µM (inactive) | GI50 [36]: > 100 µM (inactive) | GI50 [37]: > 100 µM (inactive) | GI50 [38]: > 100 µM (inactive) | GI50 [39]: > 100 µM (inactive) | GI50 [40]: > 100 µM (inactive) | GI50 [41]: > 100 µM (inactive) | GI50 [42]: > 100 µM (inactive) | GI50 [43]: > 100 µM (inactive) | GI50 [44]: > 100 µM (inactive) | GI50 [45]: > 100 µM (inactive) | GI50 [46]: > 100 µM (inactive) | GI50 [47]: > 100 µM (inactive) | GI50 [48]: > 100 µM (inactive) | GI50 [49]: > 100 µM (inactive) | GI50 [50]: > 100 µM (inactive) | GI50 [51]: > 100 µM (inactive) | GI50 [52]: > 100 µM (inactive) | GI50 [53]: > 100 µM (inactive) | GI50 [54]: > 100 µM (inactive) | GI50 [55]: > 100 µM (inactive)

COc1cc2c(cc1OC(=O)CC(C)O)C1C(OC2=O)C(OC(C)=O)C=C2CCN(C)[C@H]21 (stereo partly drawn)
GI50 [1]: 81.3 µM (inactive) | GI50 [2]: 47 µM (inactive) | GI50 [3]: 29 µM (inactive) | GI50 [4]: 69 µM (inactive) | GI50 [5]: 33.1 µM (inactive) | GI50 [6]: 97.7 µM (inactive) | GI50 [56]: 47.2 µM (inactive) | GI50 [8]: 39.9 µM (inactive) | GI50 [9]: 78.9 µM (inactive) | GI50 [10]: 21.4 µM (inactive) | GI50 [11]: 24.2 µM (inactive) | GI50 [12]: 20.7 µM (inactive) | GI50 [14]: 17.3 µM (inactive) | GI50 [15]: 82.4 µM (inactive) | GI50 [16]: 58.7 µM (inactive) | GI50 [17]: 17.2 µM (inactive) | GI50 [57]: > 100 µM (inactive) | GI50 [18]: 46.3 µM (inactive) | GI50 [19]: 20.7 µM (inactive) | GI50 [20]: 31 µM (inactive) | GI50 [21]: 68.5 µM (inactive) | GI50 [22]: > 100 µM (inactive) | GI50 [24]: 64.3 µM (inactive) | GI50 [25]: 16.1 µM (inactive) | GI50 [26]: 40.4 µM (inactive) | GI50 [27]: 15.9 µM (inactive) | GI50 [28]: > 100 µM (inactive) | GI50 [29]: 26.2 µM (inactive) | GI50 [30]: 38.1 µM (inactive) | GI50 [31]: 31.1 µM (inactive) | GI50 [32]: 27.5 µM (inactive) | GI50 [33]: > 100 µM (inactive) | GI50 [34]: > 100 µM (inactive) | GI50 [35]: 15.9 µM (inactive) | GI50 [36]: 65.8 µM (inactive) | GI50 [37]: 20.1 µM (inactive) | GI50 [38]: > 100 µM (inactive) | GI50 [39]: 17.9 µM (inactive) | GI50 [40]: > 100 µM (inactive) | GI50 [41]: 18 µM (inactive) | GI50 [42]: 38.6 µM (inactive) | GI50 [43]: 74.5 µM (inactive) | GI50 [44]: 26.3 µM (inactive) | GI50 [45]: 47.1 µM (inactive) | GI50 [47]: 20.7 µM (inactive) | GI50 [58]: 71.1 µM (inactive) | GI50 [48]: 21.1 µM (inactive) | GI50 [49]: 40.5 µM (inactive) | GI50 [50]: > 100 µM (inactive) | GI50 [51]: 26.9 µM (inactive) | GI50 [53]: 21.5 µM (inactive) | GI50 [54]: > 100 µM (inactive) | GI50 [55]: 38.4 µM (inactive)
